Values of other authors as cited in article PMC8287861 (Frontiers in Microbiology, 2021).
Values after ≈ are worked out from the molar mass of the structure shown. Where two headings read alike, the source gives them in different places. Blank lines part the entries; values can stand above or below the compound they belong to.

Experiments:
Pseudomonas aeruginosa [1] = tested on: Pseudomonas aeruginosa; set-up: method as in Lomovskaya et al. (2021); settings: ref Lomovskaya et al. (2021); for MIC50 / MIC90: challenge panel, QPX7728 at 8 μg/ml
[2] = tested on: isogenic strains of P. aeruginosa that produced KPC; set-up: method as in Lomovskaya et al., 2020a; settings: ref Lomovskaya et al., 2020a
[3] = tested on: KPC-producing strains of Klebsiella pneumoniae and blaKPC mutants; set-up: method as in Nelson et al., 2019; settings: ref Nelson et al., 2019
Pseudomonas aeruginosa [4] = tested on: Pseudomonas aeruginosa; set-up: method as in Lomovskaya et al. (2021); settings: panel reflecting current MIC distribution (N = 500); QPX7728 at 8 μg/ml; ref Lomovskaya et al. (2021)
[5] = tested on: Enterobacterales producing ESBLs and carbapenemases; set-up: method as in Rubio-Aparicio et al., 2019; settings: ref Rubio-Aparicio et al., 2019

MIC50 (Pseudomonas aeruginosa [1]; All (N = 290)): 32 µg/mL (≈ 73.5 µM)
MIC90 (Pseudomonas aeruginosa [1]; All (N = 290)): >64 µg/mL
MIC50 (Pseudomonas aeruginosa [1]; MBL (N = 61)): 32 µg/mL (≈ 73.5 µM)
MIC90 (Pseudomonas aeruginosa [1]; MBL (N = 61)): >64 µg/mL
MIC50 (Pseudomonas aeruginosa [1]; No MBL (N = 229)): 32 µg/mL (≈ 73.5 µM)
MIC90 (Pseudomonas aeruginosa [1]; No MBL (N = 229)): >64 µg/mL
SMILES: C[C@H]1[C@H](NC(=O)/C(=N\OC(C)(C)C(=O)O)c2csc(N)n2)C(=O)N1S(=O)(=O)O [Aztreonam, aztreonam]

MIC50 ([5]; All Enterobacterales (N = 972)): >64/>64 μg/ml
MIC90 ([5]; All Enterobacterales (N = 972)): >64/>64 μg/ml
MIC50 ([5]; CRE KPC (N = 292)): >64/>64 μg/ml
MIC90 ([5]; CRE KPC (N = 292)): >64/>64 μg/ml
MIC50 ([5]; CRE MBL (N = 226)): >64/>64 μg/ml
MIC90 ([5]; CRE MBL (N = 226)): >64/>64 μg/ml
MIC50 ([5]; CRE OXA-48 (N = 47)): >64/>64 μg/ml
MIC90 ([5]; CRE OXA-48 (N = 47)): >64/>64 μg/ml
MIC50 ([5]; ESBLs, no CRE (N = 371)): >64/>64 μg/ml
MIC90 ([5]; ESBLs, no CRE (N = 371)): >64/>64 μg/ml
MIC50 ([5]; Non-CP CRE): >64/>64 μg/ml
MIC90 ([5]; Non-CP CRE): >64/>64 μg/ml
SMILES: COCC1=C(C(=O)O)N2C(=O)[C@@H](NC(=O)/C(=N\OC)c3csc(N)n3)[C@H]2SC1 [Cefpodoxime]

MIC50 ([5]; All Enterobacterales (N = 972)): 32 µg/mL (≈ 78 µM)
MIC90 ([5]; All Enterobacterales (N = 972)): > 64 µg/mL
MIC50 ([5]; CRE KPC (N = 292)): 16 µg/mL (≈ 39 µM)
MIC90 ([5]; CRE KPC (N = 292)): > 64 µg/mL
MIC50 ([5]; CRE MBL (N = 226)): >64/>64 μg/ml
MIC90 ([5]; CRE MBL (N = 226)): >64/>64 μg/ml
MIC50 ([5]; CRE OXA-48 (N = 47)): 64/>64 μg/ml
MIC90 ([5]; CRE OXA-48 (N = 47)): 64/>64 μg/ml
MIC50 ([5]; ESBLs, no CRE (N = 371)): 8 µg/mL (≈ 19.5 µM)
MIC90 ([5]; ESBLs, no CRE (N = 371)): > 64 µg/mL
MIC50 ([5]; Non-CP CRE): >64/>64 μg/ml
MIC90 ([5]; Non-CP CRE): >64/>64 μg/ml
SMILES: Nc1nc(/C(=C/CC(=O)O)C(=O)N[C@@H]2C(=O)N3C(C(=O)O)=CCS[C@H]23)cs1 [Ceftibuten]

Further lines, the compound ahead of its results:

SMILES: C[C@@H](O)[C@H]1C(=O)N2C(C(=O)[O-])=C(SC3Cn4cnc[n+]4C3)[C@H](C)[C@H]12 (stereo partly drawn) [Biapenem]
Biapenem MIC ([2]; PAM4126, mexR (MexAB-OprM)): 64 µg/mL
Biapenem MIC ([2]; PAM4129, nfxB (MexCD-OprJ)): 8 µg/mL
Biapenem MIC ([2]; PAM4132, mexT (MexEF-OprM)): 128 µg/mL
Biapenem MIC ([2]; PAM4150, mexZ (MexXY-OprM)): 64 µg/mL
Biapenem MIC ([2]; PAM4224, Wild-type): 64 µg/mL
Biapenem MIC ([2]; PAM4365, MexA::Tet): 64 µg/mL
MIC of the vector only strain ([2]; vector only counterpart of PAM4126, mexR (MexAB-OprM)): 0.125 µg/mL
MIC of the vector only strain ([2]; vector only counterpart of PAM4129, nfxB (MexCD-OprJ)): 0.03 µg/mL
MIC of the vector only strain ([2]; vector only counterpart of PAM4132, mexT (MexEF-OprM)): 0.5 µg/mL
MIC of the vector only strain ([2]; vector only counterpart of PAM4150, mexZ (MexXY-OprM)): 0.25 µg/mL
MIC of the vector only strain ([2]; vector only counterpart of PAM4224, Wild-type): 0.25 µg/mL
MIC of the vector only strain ([2]; vector only counterpart of PAM4365, MexA::Tet): 0.25 µg/mL

SMILES: CO/N=C(\C(=O)N[C@@H]1C(=O)N2C(C(=O)[O-])=C(C[N+]3(C)CCCC3)CS[C@H]12)c1csc(N)n1 [Cefepime, cefepime]
MIC ([3]; KP1074, KPC-3, SHV-11, TEM-1/GD): >128 µg/mL
MIC ([3]; KP1099, KPC-2, SHV-11, SHV-12, CTX-M-14/GD): >128 µg/mL
MIC ([3]; KP1102, KPC-3, TEM-1, SHV-11/GD): >128 µg/mL
MIC ([3]; KP1246, KPC-3, SHV-12, SHV-11/FL): 128 µg/mL (≈ 266 µM)
MIC ([3]; KP1252, KPC-3, TEM-1, SHV-11/FL): >128 µg/mL
MIC ([3]; KP1317, KPC-3, TEM-1, SHV-11/GD): >128 µg/mL
MIC ([3]; KP1500, KPC-3, TEM-1, SHV-11, CTX-M-15 OXA-1 OXA-9/IS at −48): >128 µg/mL
MIC ([3]; KPM3191, KPC-3:: DDK duplication at aa#831 (KPC-29)): 64 µg/mL (≈ 133 µM)
MIC ([3]; KPM3192, KPC-3:: D179Y (KPC-31)): 32 µg/mL (≈ 66.6 µM)
MIC ([3]; KPM3200, KPC-3::duplication of EAVI (aa#278)): >128 µg/mL
MIC ([3]; KPM3205, KPC-3 ::duplication of KKDY (aa#273)): 128 µg/mL (≈ 266 µM)
MIC ([3]; KPM3210, KPC-2::D179N): 128 µg/mL (≈ 266 µM)
MIC ([3]; KPM3212, deletion of ELNSAI at aa#497): 128 µg/mL (≈ 266 µM)
MIC ([3]; KPM3213, KPC-2::D179Y (KPC-31), selected from KP1099): >128 µg/mL
MIC ([3]; KPM3214, KPC-2::D179A): 128 µg/mL (≈ 266 µM)
MIC ([3]; KPM3493, KPC-3::duplication of EL at aa#164 (KPC-25)): 32 µg/mL (≈ 66.6 µM)
MIC ([3]; KPM3494, KPC-3::R167S): 128 µg/mL (≈ 266 µM)
MIC ([3]; KPM3495, KPC-3::A175V): >128 µg/mL
MIC ([3]; KPM3511, KPC-3::P174Q): 64 µg/mL (≈ 133 µM)
MIC ([3]; KPM3512, KPC-3:: P174L): 16 µg/mL (≈ 33.3 µM)
MIC ([3]; KPM3517, KPC-3::D179Y (KPC-31)): >128 µg/mL
MIC ([3]; KPM3520, Both WT and mutant KPC-3::duplication of 8aa (aa#264–271)): >128 µg/mL
MIC ([3]; KPM3523, Both WT and mutant KPC-3:: deletion of EL (aa#241–242)): 128 µg/mL (≈ 266 µM)
MIC ([3]; KPM3546, KPC-3::R164H): >128 µg/mL
MIC50 (Pseudomonas aeruginosa [4]): 4 µg/mL (≈ 8.32 µM)
MIC90 (Pseudomonas aeruginosa [4]): 32 µg/mL (≈ 66.6 µM)
% of isolates shifted by QPX7728 at or below breakpoint (Pseudomonas aeruginosa [1]; challenge panel (N = 290), with QPX7728, 8 or 16 μg/ml for cefepime and piperacillin, respectively): 70.3%
MIC50 (Pseudomonas aeruginosa [1]; All (N = 290)): 32 µg/mL (≈ 66.6 µM)
MIC90 (Pseudomonas aeruginosa [1]; All (N = 290)): 64 µg/mL (≈ 133 µM)
MIC50 (Pseudomonas aeruginosa [1]; MBL (N = 61)): 64 µg/mL (≈ 133 µM)
MIC90 (Pseudomonas aeruginosa [1]; MBL (N = 61)): 64 µg/mL (≈ 133 µM)
MIC50 (Pseudomonas aeruginosa [1]; No MBL (N = 229)): 32 µg/mL (≈ 66.6 µM)
MIC90 (Pseudomonas aeruginosa [1]; No MBL (N = 229)): 64 µg/mL (≈ 133 µM)
